According to US20240166652A1, “MODULATORS OF THE INTEGRATED STRESS PATHWAY” (Calico Life Sciences LLC, priority 2017, published 2024):

test system: ATF4 luciferase reporter in HEK293T cells; test: ATF4-Luc assay (ATF4 luciferase reporter, tunicamycin-treated HEK293T cells); format: cell-based, human; conditions: Homo sapiens, HEK-293T; HEK293T cells carrying the ATF4 luciferase reporter, 1 μg/mL tunicamycin, 7 hours

| Structure (SMILES) | EC50 [nM] |
| --- | --- |
| O=C(CO)NC(COC(=O)NC12CC(NC(=O)COc3ccc(Cl)c(F)c3)(C1)C2)c1ccc(Cl)cc1 (centres unmarked) [Compound 791, 2-(4-chlorophenyl)-2-(2-hydroxyacetamido)ethyl {3-[2-(4-chloro-3-fluorophenoxy)acetamido]bicyclo[1.1.1]pentan-1-yl}carbamate] | > 2000 |
| CCc1cc(C)cc(OCC(=O)NC23CCC(NC(=O)COc4ccc(Cl)c(F)c4)(CC2)C[C@@H]3O)c1 [Compound 494, 2-(4-chloro-3-fluorophenoxy)-N-{(3S)-4-[2-(3-ethyl-5-methylphenoxy)acetamido]-3-hydroxybicyclo[2.2.2]octan-1-yl}acetamide] | 250 to 500 |
| COCCN1C(=O)C2(NC(=O)COc3ccc(Cl)c(F)c3)CCC1(NC(=O)COc1ccc(Cl)c(F)c1)CC2 [Compound 676, N,N′-[2-(2-methoxyethyl)-3-oxo-2-azabicyclo[2.2.2]octane-1,4-diyl]bis[2-(4-chloro-3-fluorophenoxy)acetamide]] | 250 to 500 |
| O=C(CCOc1ccc(Cl)c(F)c1)NC12CC(NC(=O)COc3ccc(Cl)c(F)c3)(C1)C2 [Compound 730, 3-(4-chloro-3-fluorophenoxy)-N-{3-[2-(4-chloro-3-fluorophenoxy)acetamido]bicyclo[1.1.1]pentan-1-yl}propanamide] | 10 to 50 |
| O=C(/C=C/c1ccc(C(F)(F)F)cc1)NC12CC(NC(=O)/C=C/c3ccc(C(F)(F)F)cc3)(C1)C2 [Compound 370, (2E,2′E)-N,N′-(bicyclo[1.1.1]pentane-1,3-diyl)bis{3-[4-(trifluoromethyl)phenyl]prop-2-enamide}] | > 2000 |
| COc1ncc(OCC(=O)NC23CCC(NC(=O)COc4cnc(OC)nc4)(CC2)[C@@H](O)C3)cn1 [Compound 626, N,N′-[(2S)-2-hydroxybicyclo[2.2.2]octane-1,4-diyl]bis{2-[(2-methoxypyrimidin-5-yl)oxy]acetamide}] | > 2000 |
| Cc1nc(F)ccc1OCC(=O)NC12CC(NC(=O)COc3ccc(Cl)c(F)c3)(C1)C2 [Compound 249, 2-(4-chloro-3-fluorophenoxy)-N-(3-{2-[(6-fluoro-2-methylpyridin-3-yl)oxy]acetamido}bicyclo[1.1.1]pentan-1-yl)acetamide] | 250 to 500 |
| O=C(COc1ccc(Cl)c(F)c1)NC12CCC(NC(=O)COc3ccc(Cl)c(F)c3)(CC1)[C@@H](O)[C@@H]2O (racemic) [Compound 745, rac-N,N′-[(2R,3R)-2,3-dihydroxybicyclo[2.2.2]octane-1,4-diyl]bis[2-(4-chloro-3-fluorophenoxy)acetamide]] | < 10 |
| O=C(COc1ccc(F)c(F)c1)NC12CCC(NC(=O)COc3cccc(C(F)(F)F)c3)(CC1)[C@@H](O)C2 [Compound 809, 2-(3,4-difluorophenoxy)-N-[(3S)-3-hydroxy-4-{2-[3-(trifluoromethyl)phenoxy]acetamido}bicyclo[2.2.2]octan-1-yl]acetamide] | < 10 |
| O=C(Cc1ccc(OC(F)(F)F)cc1)NC12CCC(NC(=O)COc3ccc(Cl)c(F)c3)(CC1)C(O)C2 (centres unmarked) [Compound 340, 2-(4-chloro-3-fluorophenoxy)-N-(2-hydroxy-4-{2-[4-(trifluoromethoxy)phenyl]acetamido}bicyclo[2.2.2]octan-1-yl)acetamide] | 50 to 250 |
| O=C(COc1ccc(C(F)(F)F)c(F)c1)NC12CCC(NC(=O)COc3ccc(Cl)cc3)(CC1)[C@@H](O)C2 [Compound 843, 2-(4-chlorophenoxy)-N-[(2S)-4-{2-[3-fluoro-4-(trifluoromethyl)phenoxy]acetamido}-2-hydroxybicyclo[2.2.2]octan-1-yl]acetamide] | < 10 |
| O=C(COc1ccc(C(F)F)nc1)NC12CC(NC(=O)COc3ccc(Cl)c(F)c3)(C1)C2 [Compound 399, 2-(4-chloro-3-fluorophenoxy)-N-[3-(2-{[6-(difluoromethyl)pyridin-3-yl]oxy}acetamido)bicyclo[1.1.1]pentan-1-yl]acetamide] | 10 to 50 |
| O=C(COc1ccc(Cl)c(F)c1)NC12CC(NC(=O)Cc3cc(F)cc(F)c3)(C1)C2 [Compound 491, 2-(4-chloro-3-fluorophenoxy)-N-{3-[2-(3,5-difluorophenyl)acetamido]bicyclo[1.1.1]pentan-1-yl}acetamide] | > 2000 |
| O=C(COc1ccc(Cl)c(F)c1)NC12CCC(NS(=O)(=O)Cc3cccc(C(F)(F)F)c3)(CC1)[C@@H](O)C2 [Compound 430, 2-(4-chloro-3-fluorophenoxy)-N-[(3S)-3-hydroxy-4-({[3-(trifluoromethyl)phenyl]methanesulfonyl}amino)bicyclo[2.2.2]octan-1-yl]acetamide] | 500 to 2000 |
| O=C(COc1ccc(Cl)c(F)c1)NC12CC(NC(=O)COc3c(F)cc(F)cc3F)(C1)C2 [Compound 406, 2-(4-chloro-3-fluorophenoxy)-N-{3-[2-(2,4,6-trifluorophenoxy)acetamido]bicyclo[1.1.1]pentan-1-yl}acetamide] | 10 to 50 |
| COC(=O)c1cc(OCC(=O)NC23CCC(NC(=O)COc4ccc(Cl)c(F)c4)(CC2)[C@@H](O)C3)ccc1Cl [Compound 597, methyl 2-chloro-5-[2-({(3S)-4-[2-(4-chloro-3-fluorophenoxy)acetamido]-3-hydroxybicyclo[2.2.2]octan-1-yl}amino)-2-oxoethoxy]benzoate] | 10 to 50 |

| Structure (SMILES) | EC50 [nM] |
| --- | --- |
| CC(C)(C)[Si](C)(C)OCCN(C(=O)COc1ccc(Cl)c(F)c1)C12CC(NC(=O)COc3ccc(Cl)c(F)c3)(C1)C2 [Compound 189, N-(2-{[tert-butyl(dimethyl)silyl]oxy}ethyl)-2-(4-chloro-3-fluorophenoxy)-N-{3-[2-(4-chloro-3-fluorophenoxy)acetamido]bicyclo[1.1.1]pentan-1-yl}acetamide] | 500 to 2000 |
| Cc1cc(OCC(=O)NC23CCC(NC(=O)COc4ccc(Cl)c(F)c4)(CC2)C[C@@H]3O)cc(C)n1 [Compound 395, 2-(4-chloro-3-fluorophenoxy)-N-[(3S)-4-{2-[(2,6-dimethylpyridin-4-yl)oxy]acetamido}-3-hydroxybicyclo[2.2.2]octan-1-yl]acetamide] | 500 to 2000 |
| O=C(COc1ccc(Cl)c(F)c1)NC12CC(NS(=O)(=O)Cc3ccc(Cl)cc3)(C1)C2 [Compound 427, 2-(4-chloro-3-fluorophenoxy)-N-(3-{[(4-chlorophenyl)methanesulfonyl]amino}bicyclo[1.1.1]pentan-1-yl)acetamide] | 500 to 2000 |
| O=C(COc1ccc(F)cc1)NC12CCC(NC(=O)COc3ccc(F)cc3)(CC1)[C@@H](O)C2 [Compound 550, N,N′-[(2S)-2-hydroxybicyclo[2.2.2]octane-1,4-diyl]bis[2-(4-fluorophenoxy)acetamide]] | < 10 |
| O=C(COc1ccc(Cl)c(F)c1)NC12CC(NC(=O)Cc3ccccc3)(C1)C2 [Compound 446, 2-(4-chloro-3-fluorophenoxy)-N-[3-(2-phenylacetamido)bicyclo[1.1.1]pentan-1-yl]acetamide] | > 2000 |
| CC(=O)O[C@@H]1CC2(NCCOc3ccc(Cl)c(F)c3)CCC1(NC(=O)COc1ccc(Cl)c(F)c1)CC2 [Compound 450, (2R)-1-[2-(4-chloro-3-fluorophenoxy)acetamido]-4-{[2-(4-chloro-3-fluorophenoxy)ethyl]amino}bicyclo[2.2.2]octan-2-yl acetate] | 10 to 50 |
| O=C(COc1ccc(Cl)c(F)c1)NC12CCC(NC(=O)COc3ccc(F)c(C(F)(F)F)c3)(CC1)[C@@H](O)C2 [Compound 828, 2-(4-chloro-3-fluorophenoxy)-N-[(3S)-4-{2-[4-fluoro-3-(trifluoromethyl)phenoxy]acetamido}-3-hydroxybicyclo[2.2.2]octan-1-yl]acetamide] | < 10 |
| CC(=O)c1ccc(OCC(=O)NC23CCC(NC(=O)COc4ccc(Cl)c(F)c4)(CC2)C[C@@H]3O)cc1 [Compound 511, 2-(4-acetylphenoxy)-N-{(2S)-4-[2-(4-chloro-3-fluorophenoxy)acetamido]-2-hydroxybicyclo[2.2.2]octan-1-yl}acetamide] | 10 to 50 |
| O=C(COc1ccc(F)cc1)NC12CCC(NC(=O)COc3ccc(Cl)cc3)(CC1)[C@@H](O)C2 [Compound 616, 2-(4-chlorophenoxy)-N-{(2S)-4-[2-(4-fluorophenoxy)acetamido]-2-hydroxybicyclo[2.2.2]octan-1-yl}acetamide] | < 10 |
| CNC(CC(=O)NC12CCC(NC(=O)COc3ccc(Cl)c(F)c3)(CC1)[C@@H](O)C2)c1ccc(Cl)cc1 (stereo partly drawn) [Compound 712, N-{(3S)-4-[2-(4-chloro-3-fluorophenoxy)acetamido]-3-hydroxybicyclo[2.2.2]octan-1-yl}-3-(4-chlorophenyl)-3-(methylamino)propanamide] | 500 to 2000 |
| O=C(COc1ccc(Cl)c(Cl)c1)NC12CC(NC(=O)OCCCc3cccc(Cl)c3)(C1)C2 [Compound 174, 3-(3-chlorophenyl)propyl {3-[2-(3,4-dichlorophenoxy)acetamido]-bicyclo[1.1.1]pentan-1-yl}carbamate] | 250 to 500 |
| N#CCc1cc(OCC(=O)NC23CC(NC(=O)COc4ccc(Cl)c(F)c4)(C2)C3)ccc1Cl [Compound 262, 2-[4-chloro-3-(cyanomethyl)phenoxy]-N-{3-[2-(4-chloro-3-fluorophenoxy)acetamido]bicyclo[1.1.1]pentan-1-yl}acetamide] | 10 to 50 |
| O=C(COc1ccc(Cl)c(F)c1)NC12CCC(NC(=O)COc3ccc(F)cc3)(CC1)[C@H](O)C2 (single isomer, unassigned) [Compound 353] | < 10 |
| O=C(CNc1ccc(Cl)cc1)NC12CC(NC(=O)COc3ccc(Cl)c(F)c3)(C1)C2 [Compound 203, N-{3-[2-(4-chloro-3-fluorophenoxy)acetamido]bicyclo[1.1.1]pentan-1-yl}-N^2-(4-chlorophenyl)glycinamide] | 50 to 250 |
| O=C(COc1nc2c(s1)CCCC2)NC12CCC(NC(=O)COc3ccc(Cl)c(F)c3)(CC1)[C@@H](O)C2 [Compound 578, 2-(4-chloro-3-fluorophenoxy)-N-[(2S)-2-hydroxy-4-{2-[(4,5,6,7-tetrahydro-1,3-benzothiazol-2-yl)oxy]acetamido}bicyclo[2.2.2]octan-1-yl]acetamide] | > 2000 |
| O=C(COc1ccc(Cl)c(F)c1)NC12CCC(NC(=O)COc3ccc(F)c(F)c3)(CC1)[C@@H](O)C2 [Compound 587, 2-(4-chloro-3-fluorophenoxy)-N-{(3S)-4-[2-(3,4-difluorophenoxy)acetamido]-3-hydroxybicyclo[2.2.2]octan-1-yl}acetamide] | < 10 |
